{"source": "paper PMC11678869", "about": "“Functional Role of Odorant-Binding Proteins in Response to Sex Pheromone Component Z8-14:Ac in Grapholita molesta (Busck)” (Insects, 2024)", "key": {"OFM males": {"tested_on": "OFM males", "test": "Field trapping with delta traps, peach orchard", "type": "in vivo, Grapholita molesta", "settings": "for Inhibition Rate of OFM Males: vs 100:4:0", "protocol": "To determine the inhibitory effects on OFM male adults and the impact on the trapping effects of PFM male adults, varying amounts of Z8-14:Ac (0, 5, 10, 25, 50, 75, 100, 125, 150 μg) or Z10-14:Ac (0, 25, 50, 100, 150, 250, 350, 450, and 550 μg) were added to rubber septa loaded with a constant dosage of the main pheromone (500 μg of Z8-12:Ac and 20 μg of E8-12:Ac) of the PFM. Trapping experiments of Z8-14:Ac were carried out in peach and pear orchards in Yan’an and Xinjiang (China), respectively. Trapping tests of Z10-14:Ac were performed in pear orchards in Xinjiang (China). Each orchard had nine plots, with three plots in one field. Each plot consisted of a linear arrangement of traps loaded with a constant dosage of the main pheromones and different percentages of the secondary pheromone Z8-14:Ac or Z10-14:Ac of the PFM. Plots in the same field were placed 30 m apart, and fields were ≥1 km apart. The traps were hung 1.4 m from the ground on a suspension bracket between two rows of peach or pear trees from 10 June to 25 July 2021 in Xinjiang and from 15 June to 30 July 2021 in Yan’an. The positions of the traps within the plot were randomly arranged. Every 5 days, counts were taken, and the traps were rotated to the adjacent position to avoid any potential position effects. The septa loaded with sex pheromone components were replaced with new ones after every 15 days of suspension. The data were analyzed using a one-way ANOVA, and the differences in the average trapping of OFM and PFM males using sex attractants containing different amounts of Z8-14:Ac or Z10-14:Ac were further analyzed using Tukey’s HSD test, both of which were performed using SPSS 23.0."}, "PFM male antennae": {"tested_on": "PFM male antennae", "test": "Electroantennogram (EAG) analysis", "parameters": "species or system Grapholita funebrana", "settings": "20, 200 and 2000 μg doses", "protocol": "Electroantennogram (EAG) equipment (Syntech, Hilversum, The Netherlands) was used to record the antennal responses of the OFM and PFM adults to Z8-12:Ac, E8-12:Ac, Z8-12:OH, Z8-14:Ac, and Z10-14:Ac. These sex pheromone compounds were diluted with liquid paraffin to prepare a stimulus solution of 100 μg/μL, which was subsequently diluted to 10 and 1 μg/μL. Antenna from 3-day-old OFM and 2- to 4-day-old PFM virgin males were excised at its base, with the distal part of the terminal segment being removed. Then, the treated antenna was attached to electrode holders with SpectraR360 conducting gel. A stimulus controller (model CS-55, Syntegon Technology, Waiblingen, Germany) continuously supplied a humidified air stream at a rate of 500 mL/min. Then, 20 μL of each stimulus solution was adsorbed onto a twice-folded filter paper strip (0.5 cm × 4 cm) placed on the wide section of a l mL pipette tip, which served as an odorant cartridge. Vapor stimuli were delivered by an air compressor into the constant air stream described above, flowing in a copper delivery tube (i.d. 8 mm) with the outlet positioned approximately 1 cm from the antenna. The EAG amplitude tests of the OFM and PFM males’ responses to sex pheromones started with solvent control stimuli (20 μL of liquid paraffin), followed by stimulation with 20, 200, and 2000 μg doses (20 μL of 1.0, 10.0, and 100.0 μg/μL of liquid paraffin solutions, respectively) of stimulus in sequence. The solvent control was performed at the end of the run. To control for variations among antennae, each sample was tested on 10 antennae of different males. The EAG signals and data were analyzed using EAG 2000 software (Syntech, Hilversum, The Netherlands). The corrected EAG amplitude value = absolute EAG amplitude value − (EAGck1 + EAGck2)/2, where EAGck1 and EAGck2 represent the absolute EAG amplitude values of the solvent control before and after measuring each stimulus, respectively. The relative EAG response of the OFM and PFM males to the same doses of sex pheromones were subjected to an analysis of independent sample t-test (p = 0.05) using SPSS version 23.0 (IBM)."}, "[1]": {"settings": "peach orchard, Z8-12:Ac/E8-12:Ac/Z8-14:Ac 500/20/5 μg (100:4:1)"}, "[2]": {"settings": "peach orchard, Z8-12:Ac/E8-12:Ac/Z8-14:Ac 500/20/10 μg (100:4:2)"}, "[3]": {"settings": "peach orchard, Z8-12:Ac/E8-12:Ac/Z8-14:Ac 500/20/25 μg (100:4:5)"}, "[4]": {"settings": "peach orchard, Z8-12:Ac/E8-12:Ac/Z8-14:Ac 500/20/50 μg (100:4:10)"}, "[5]": {"settings": "peach orchard, Z8-12:Ac/E8-12:Ac/Z8-14:Ac 500/20/75 μg (100:4:15)"}, "[6]": {"settings": "peach orchard, Z8-12:Ac/E8-12:Ac/Z8-14:Ac 500/20/100 μg (100:4:20)"}, "[7]": {"settings": "peach orchard, Z8-12:Ac/E8-12:Ac/Z8-14:Ac 500/20/125 μg (100:4:25)"}, "[8]": {"settings": "peach orchard, Z8-12:Ac/E8-12:Ac/Z8-14:Ac 500/20/150 μg (100:4:30)"}}, "data": [{"molecule": "CCCCC/C=C\\CCCCCCCOC(C)=O", "note": "[Z8-14:Ac, (Z)-8-tetradecenyl acetate]", "values": [{"measurement": "Total OFM Males/Trap", "setting": "OFM males; [1]", "result": "46.08±3.25", "unit": "b Males/Trap"}, {"measurement": "Inhibition Rate of OFM Males", "setting": "OFM males; [1]", "result": 58.81, "unit": "%"}, {"measurement": "Total OFM Males/Trap", "setting": "OFM males; [2]", "result": "40.89±2.35", "unit": "b Males/Trap"}, {"measurement": "Inhibition Rate of OFM Males", "setting": "OFM males; [2]", "result": 63.45, "unit": "%"}, {"measurement": "Total OFM Males/Trap", "setting": "OFM males; [3]", "result": "14.82±1.47", "unit": "c Males/Trap"}, {"measurement": "Inhibition Rate of OFM Males", "setting": "OFM males; [3]", "result": 86.75, "unit": "%"}, {"measurement": "Total OFM Males/Trap", "setting": "OFM males; [4]", "result": "9.04±1.08", "unit": "c Males/Trap"}, {"measurement": "Inhibition Rate of OFM Males", "setting": "OFM males; [4]", "result": 91.92, "unit": "%"}, {"measurement": "Total OFM Males/Trap", "setting": "OFM males; [5]", "result": "9.55±1.09", "unit": "c Males/Trap"}, {"measurement": "Inhibition Rate of OFM Males", "setting": "OFM males; [5]", "result": 91.46, "unit": "%"}, {"measurement": "Total OFM Males/Trap", "setting": "OFM males; [6]", "result": "9.67±1.52", "unit": "c Males/Trap"}, {"measurement": "Inhibition Rate of OFM Males", "setting": "OFM males; [6]", "result": 91.36, "unit": "%"}, {"measurement": "Total OFM Males/Trap", "setting": "OFM males; [7]", "result": "6.86±0.24", "unit": "c Males/Trap"}, {"measurement": "Inhibition Rate of OFM Males", "setting": "OFM males; [7]", "result": 93.87, "unit": "%"}, {"measurement": "Total OFM Males/Trap", "setting": "OFM males; [8]", "result": "7.96±1.19", "unit": "c Males/Trap"}, {"measurement": "Inhibition Rate of OFM Males", "setting": "OFM males; [8]", "result": 92.88, "unit": "%"}, {"measurement": "reduction of the number of OFM males caught", "setting": "OFM males; peach orchard, adding 5–30% of Z8-14:Ac to Z8-12:Ac and E8-12:Ac", "result": "more than 86%"}, {"measurement": "reduction of the capture of OFM males", "setting": "OFM males; peach orchards, adding 1–2% of Z8-14:Ac to Z8-12:Ac and E8-12:Ac (100:4)", "result": "58.81–63.45%"}, {"measurement": "EAG response of PFM males", "setting": "PFM male antennae", "result": "moderate EAG response"}]}]}
